From patent US20110118262A1, “Pyrrolidinyl and Piperidinyl Compounds Useful as NHE-1 Inhibitiors” (BOEHRINGER INGELHEIM INTERNATIONAL GMBH, priority 2008, published 2011) come the findings set out here.

This experiment deals with T1, NHE-1 (Homo sapiens, UniProt P19634).
T1 construct: endogenous in cells; host or cells: HT-29
Put plainly: Evaluation of NHE-1 Inhibition (pHi) in HT-29 cells. It is filed as cell-based. The note with it: BCECF dye, 50% inhibition of the intracellular pH recovery, read-out: NHE1 HT29 pHi IC50. In short, it runs like this: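 Intracellular pH measured with BCECF in HT-29 cells after 24 h culture. Cells dye-loaded 30 min at 37° C, then acid-loaded with NH4Cl-containing choline buffer (pH 7.5) for 30 min at RT. Compounds added on an FDSS6000 fluorescence reader.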

T1 sequence (P19634 whole entry): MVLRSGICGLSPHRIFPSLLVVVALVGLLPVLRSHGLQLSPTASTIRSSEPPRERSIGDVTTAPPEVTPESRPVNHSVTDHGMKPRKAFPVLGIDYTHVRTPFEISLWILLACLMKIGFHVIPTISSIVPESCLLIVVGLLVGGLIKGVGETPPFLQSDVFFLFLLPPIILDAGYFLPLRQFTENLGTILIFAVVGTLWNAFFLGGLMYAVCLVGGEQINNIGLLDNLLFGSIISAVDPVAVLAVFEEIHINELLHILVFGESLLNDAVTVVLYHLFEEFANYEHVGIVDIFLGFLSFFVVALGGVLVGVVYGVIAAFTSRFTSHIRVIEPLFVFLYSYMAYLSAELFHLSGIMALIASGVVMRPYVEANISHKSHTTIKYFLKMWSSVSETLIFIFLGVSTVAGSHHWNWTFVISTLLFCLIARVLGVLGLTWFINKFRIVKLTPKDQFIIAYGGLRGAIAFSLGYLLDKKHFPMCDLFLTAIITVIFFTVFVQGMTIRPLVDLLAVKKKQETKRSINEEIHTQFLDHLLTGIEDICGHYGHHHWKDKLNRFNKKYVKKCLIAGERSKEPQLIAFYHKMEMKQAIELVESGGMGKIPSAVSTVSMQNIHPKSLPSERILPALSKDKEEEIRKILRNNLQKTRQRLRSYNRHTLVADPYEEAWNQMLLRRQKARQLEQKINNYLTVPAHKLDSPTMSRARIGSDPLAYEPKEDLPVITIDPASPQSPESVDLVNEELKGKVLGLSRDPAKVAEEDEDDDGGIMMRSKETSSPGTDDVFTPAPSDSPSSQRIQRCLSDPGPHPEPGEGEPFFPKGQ

For `Cc1cc(C2CCN(C(=O)C(C)(C)O)CC2)c(C(F)(F)F)cc1C(=O)NC(=N)N` [N-{4-[1-(2-Hydroxy-2-methyl-propionyl)-piperidin-4-yl]-2-methyl-5-trifluoromethyl-benzoyl}-guanidine], the half-maximal inhibitory concentration (IC50) came to 0.016 µM.
On to `CN1CCOc2cc(C(=O)N3CCC(c4ccc(C(=O)NC(=N)N)cc4C(F)(F)F)CC3)ccc21` [N-{4-[1-(4-Methyl-3,4-dihydro-2H-benzo[1,4]oxazine-7-carbonyl)-piperidin-4-yl]-3-trifluoromethyl-benzoyl}-guanidine], for which the IC50 turned out to be 0.047 µM.
The same measure for `Cc1cc(C2CCN(C(=O)c3ccc(C#N)cc3)CC2)c(S(C)(=O)=O)cc1C(=O)NC(=N)N` [N-{4-[1-(4-cyano-benzoyl)-piperidin-4-yl]-5-methanesulfonyl-2-methyl-benzoyl}-guanidine]: 0.027 µM; for `COC(=O)c1ccc(C(=O)N2CCC(c3ccc(C(=O)NC(=N)N)cc3C(F)(F)F)CC2)cc1` [4-[4-(4-Guanidinocarbonyl-2-trifluoromethyl-phenyl)-piperidine-1-carbonyl]-benzoic acid methyl ester]: 0.183 µM.
The same measure for `Cc1cc(C2CCN(C(=O)c3ncc[nH]3)CC2)c(C(F)(F)F)cc1C(=O)NC(=N)N` [N-{4-[1-(1H-Imidazole-2-carbonyl)-piperidin-4-yl]-2-methyl-5-trifluoromethyl-benzoyl}-guanidine]: 0.004 µM; for `COCC(=O)N1CCC(c2cc(C)c(C(=O)NC(=N)N)cc2S(C)(=O)=O)CC1` [N-{5-methanesulfonyl-4-[1-(2-methoxy-acetyl)-piperidin-4-yl]-2-methyl-benzoyl}-guanidine]: 0.015 µM.
As for `Cc1cc(C2CCN(C(=O)c3cccc(C#N)c3)CC2)c(S(C)(=O)=O)cc1C(=O)NC(=N)N` [N-{4-[1-(3-cyano-benzoyl)-piperidin-4-yl]-5-methanesulfonyl-2-methyl-benzoyl}-guanidine], the IC50 is 0.023 µM.
The result for `Cc1cc(C2CCN(C(=O)CN(C)C)CC2)c(C(F)(F)F)cc1C(=O)NC(=N)N` [N-{4-[1-(2-dimethylamino-acetyl)-piperidin-4-yl]-2-methyl-5-trifluoromethyl-benzoyl}-guanidine] reads 0.006 µM; that for `N=C(N)NC(=O)c1ccc(C2CCN(C(=O)C3CCN(c4ncccn4)CC3)CC2)c(C(F)(F)F)c1` [N-{4-[1-(1-Pyrimidin-2-yl-piperidine-4-carbonyl)-piperidin-4-yl]-3-trifluoromethyl-benzoyl}-guanidine], 0.07 µM.
As to `CC(C)CC(=O)N1CCC(c2ccc(C(=O)NC(=N)N)cc2C(F)(F)F)CC1` [N-{4-[1-(3-Methyl-butyryl)-piperidin-4-yl]-3-trifluoromethyl-benzoyl}-guanidine], the IC50 was 0.049 µM.
The same measure for `CC(=O)N1CCC(c2ccc(C(=O)NC(=N)N)cc2C(F)(F)F)CC1` [N-[4-(1-Acetyl-piperidin-4-yl)-3-trifluoromethyl-benzoyl]-guanidine]: 0.009 µM.
In the case of `CS(=O)(=O)c1ccccc1Oc1cc(C(=O)N2CCC(c3ccc(C(=O)NC(=N)N)cc3C(F)(F)F)CC2)ccn1` [N-(4-{1-[2-(2-Methanesulfonyl-phenoxy)-pyridine-4-carbonyl]-piperidin-4-yl}-3-trifluoromethyl-benzoyl)-guanidine], the IC50 is 0.076 µM.
The same measure for `CN1CCC(C(=O)N2CCC(c3ccc(C(=O)NC(=N)N)cc3C(F)(F)F)CC2)CC1` [N-{4-[1-(1-Methyl-piperidine-4-carbonyl)-piperidin-4-yl]-3-trifluoromethyl-benzoyl}-guanidine]: 0.0003 µM; for `CNS(=O)(=O)c1ccc(Oc2ccc(C(=O)N3CCC(c4ccc(C(=O)NC(=N)N)cc4C(F)(F)F)CC3)cn2)cc1` [4-{5-[4-(4-Guanidinocarbonyl-2-trifluoromethyl-phenyl)-piperidine-1-carbonyl]-pyridin-2-yloxy}-N-methyl-benzenesulfonamide]: 0.092 µM.
The same measure for `C[C@@](N)(Cc1ccccc1)C(=O)N1CCC(c2ccc(C(=O)NC(=N)N)cc2C(F)(F)F)CC1` [(R)-N-{4-[1-(-2--Amino-2-methyl-3-phenyl-propionyl)-piperidin-4-yl]-3-trifluoromethyl-benzoyl}-guanidine]: 0.024 µM; for `CC(C)(C)C(=O)N1CCC(c2ccc(C(=O)NC(=N)N)cc2C(F)(F)F)CC1` [N-{4-[1-(2,2-Dimethyl-propionyl)-piperidin-4-yl]-3-trifluoromethyl-benzoyl}-guanidine]: 0.068 µM; for `N#Cc1ccc(CC(N)C(=O)N2CCC(c3ccc(C(=O)NC(=N)N)cc3C(F)(F)F)CC2)cc1` (stereo not drawn) [N-(4-{1-[2-Amino-3-(4-cyano-phenyl)-propionyl]-piperidin-4-yl}-3-trifluoromethyl-benzoyl)-guanidine]: 0.058 µM.
Consider `COCCC(=O)N1CCC(c2ccc(C(=O)NC(=N)N)cc2C(F)(F)F)CC1` [N-{4-[1-(3-Methoxy-propionyl)-piperidin-4-yl]-3-trifluoromethyl-benzoyl}-guanidine], for which the IC50 turned out to be 0.02 µM.
The result for `Cc1cc(C2CCN(C(=O)c3ncco3)CC2)c(C(F)(F)F)cc1C(=O)NC(=N)N` [N-{2-Methyl-4-[1-(oxazole-2-carbonyl)-piperidin-4-yl]-5-trifluoromethyl-benzoyl}-guanidine] reads 0.012 µM; that for `CS(=O)(=O)c1cc(C(=O)NC(=N)N)ccc1C1CCN(C(=O)c2cccc(C(F)(F)F)c2)CC1` [N-{3-methanesulfonyl-4-[1-(3-trifluoromethyl-benzoyl)-piperidin-4-yl]-benzoyl}-guanidine], 0.054 µM; that for `Cn1cccc1C(=O)N1CCC(c2ccc(C(=O)NC(=N)N)cc2C(F)(F)F)CC1` [N-{4-[1-(1-Methyl-1H-pyrrole-2-carbonyl)-piperidin-4-yl]-3-trifluoromethyl-benzoyl}-guanidine], 0.079 µM.
Turning to `CN(C)CCC(=O)N1CCC(c2ccc(C(=O)NC(=N)N)cc2C(F)(F)F)CC1` [N-{4-[1-(3-Dimethylamino-propionyl)-piperidin-4-yl]-3-trifluoromethyl-benzoyl}-guanidine], the 50% inhibitory concentration (IC50) came to 0.01 µM.
Consider `Cc1cc(C2CCN(C(=O)c3cccnc3)CC2)c(C(F)(F)F)cc1C(=O)NC(=N)N` [N-{2-Methyl-4-[1-(pyridine-3-carbonyl)-piperidin-4-yl]-5-trifluoromethyl-benzoyl}-guanidine], for which the IC50 came out at 0.03 µM.
The same measure for `COc1ccc(C(=O)N2CCC(c3ccc(C(=O)NC(=N)N)cc3C(F)(F)F)CC2)cc1` [N-{4-[1-(4-Methoxy-benzoyl)-piperidin-4-yl]-3-trifluoromethyl-benzoyl}-guanidine]: 0.195 µM; for `N=C(N)NC(=O)c1ccc(C2CCN(C(=O)C3CCNC3)CC2)c(C(F)(F)F)c1` (stereo not drawn) [N-{4-[1-(Pyrrolidine-3-carbonyl)-piperidin-4-yl]-3-trifluoromethyl-benzoyl}-guanidine]: 0.005 µM; for `Cc1cc(C2CCN(C(=O)CN3CCCC3=O)CC2)c(C(F)(F)F)cc1C(=O)NC(=N)N` [N-(2-Methyl-4-{1-[2-(2-oxo-pyrrolidin-1-yl)-acetyl]-piperidin-4-yl}-5-trifluoromethyl-benzoyl)-guanidine]: 0.037 µM.
Take `CC(=O)N1CCC(c2ccc(C(=O)NC(=N)N)cc2S(C)(=O)=O)CC1` [N-[4-(1-Acetyl-piperidin-4-yl)-3-methanesulfonyl-benzoyl]-guanidine]: the IC50 amounted to 0.018 µM.
Take `Cc1cc(C(=O)N2CCC(c3ccc(C(=O)NC(=N)N)cc3C(F)(F)F)CC2)nn1C` [N-{4-[1-(1,5-Dimethyl-1H-pyrazole-3-carbonyl)-piperidin-4-yl]-3-trifluoromethyl-benzoyl}-guanidine]: the IC50 was determined as 0.02 µM.
Turning to `N=C(N)NC(=O)c1ccc(C2CCN(C(=O)CCN)CC2)c(C(F)(F)F)c1` [N-{4-[1-(3-Amino-propionyl)-piperidin-4-yl]-3-trifluoromethyl-benzoyl}-guanidine], the IC50 came out at 0.008 µM.
With `Cn1cncc1C[C@H](N)C(=O)N1CCC(c2ccc(C(=O)NC(=N)N)cc2C(F)(F)F)CC1` [(S)-N-(4-{1-[2-Amino-3-(3-methyl-3H-imidazol-4-yl)-propionyl]-piperidin-4-yl}-3-trifluoromethyl-benzoyl)-guanidine], the 50% inhibitory concentration (IC50) amounted to 0.022 µM.
On to `Cc1cc(C2CCN(C(=O)c3ccc4c(c3)CCC(=O)N4)CC2)c(C(F)(F)F)cc1C(=O)NC(=N)N` [N-{2-Methyl-4-[1-(2-oxo-1,2,3,4-tetrahydro-quinoline-6-carbonyl)-piperidin-4-yl]-5-trifluoromethyl-benzoyl}-guanidine], for which the IC50 was 0.063 µM.
`Cc1cc(C2CCN(C(=O)c3cccc(C(F)(F)F)c3)CC2)c(S(C)(=O)=O)cc1C(=O)NC(=N)N` [N-{5-methanesulfonyl-2-methyl-4-[1-(3-trifluoromethyl-benzoyl)-piperidin-4-yl]-benzoyl}-guanidine]: the half-inhibitory concentration (IC50) came to 0.051 µM.
For `COc1ccc2cc(C(=O)N3CCC(c4ccc(C(=O)NC(=N)N)cc4C(F)(F)F)CC3)ccc2c1` [N-{4-[1-(6-Methoxy-naphthalene-2-carbonyl)-piperidin-4-yl]-3-trifluoromethyl-benzoyl}-guanidine], the IC50 was 0.39 µM.
The result for `N=C(N)NC(=O)c1ccc(C2CCN(C(=O)C3(N)CCCC3)CC2)c(C(F)(F)F)c1` [N-{4-[1-(1-Amino-cyclopentanecarbonyl)-piperidin-4-yl]-3-trifluoromethyl-benzoyl}-guanidine] reads 0.002 µM; that for `N=C(N)NC(=O)c1ccc(C2CCN(C(N)=O)CC2)c(C(F)(F)F)c1` [4-(4-Guanidinocarbonyl-2-trifluoromethyl-phenyl)-piperidine-1-carboxylic acid amide], 0.006 µM; that for `N=C(N)NC(=O)c1ccc(C2CCN(C(=O)c3ccc(N4CCCC4)nc3)CC2)c(C(F)(F)F)c1` [N-{4-[1-(6-Pyrrolidin-1-yl-pyridine-3-carbonyl)-piperidin-4-yl]-3-trifluoromethyl-benzoyl}-guanidine], 0.075 µM.

The term IC50 denotes the concentration needed to halve the response being measured.
